Patent US11883398B2, “Dipeptidylpeptidase 4 inhibition enhances lymphocyte trafficking, improving both naturally occurring tumor immunity and immunotherapy” (INSTITUT PASTEUR, priority 2015, dated 2024)
Entries after “also recorded” stand apart in the source; their conditions may differ.

Key:
[1] = tested on: M04 (B16F10 transfected with OVA); assay: B16-OVA (M04) tumor growth with OT1 adoptive T cell transfer; type: in vivo, mouse
Procedure: (§1) B16F10 and M04 (Ovalbumin-expressing B16F10 cells, gift from C. Reis e Sousa) tumor cells were cultured in DMEM (Gibco) supplemented with 10% FCS (PAA), 0.1 mM non-essential amino acids, 1 mM sodium pyruvate, 10 mM Hepes, 70 μM beta-mercaptoethanol and 23 μg/ml gentamycin (all from Gibco). CT26 colon carcinoma cells were cultured in RPMI (Gibco) supplemented as described for DMEM. Cells for injections were passaged 1-2 times after thawing, before use. WT and genetically modified mice were subcutaneously injected with 2×10^5 B16 or 5×10^5 CT26 cells in the shaved right flank. When indicated, mice received an intra-tumoral injection of 1 μg of recombinant mCXCL10, 5 μg CpG-A in DOPTAP or vehicle control. […] Tumor height and width were measured with a caliper and tumor volume was calculated (Elliptical volume=width^2×height×0.523). […] 15 days after tumor cell injection, lungs were dissected, placed in Fekete's solution and metastatic foci were counted. […]

CT26 colon carcinoma = assay: Subcutaneous CT26 colon carcinoma tumor growth in vivo; parameters: species or system mouse
Procedure: Mice used were 7-12 weeks old. […] B16F10 and […] (Ovalbumin-expressing B16F10 cells, gift from C. Reis e Sousa) tumor cells were cultured in DMEM (Gibco) supplemented with 10% FCS (PAA), 0.1 mM non-essential amino acids, 1 mM sodium pyruvate, 10 mM Hepes, 70 μM beta-mercaptoethanol and 23 μg/ml gentamycin (all from Gibco). CT26 colon carcinoma cells were cultured in RPMI (Gibco) supplemented as described for DMEM. Cells for injections were passaged 1-2 times after thawing, before use. WT and genetically modified mice were subcutaneously injected with 2×10^5 B16 or 5×10^5 CT26 cells in the shaved right flank. […] For blocking of chemokine and chemokine receptors, WT mice were intraperitoneally injected with 100 μg of hamster a-mCXCR3 (clone CXCR3-173, BioLegend), 100 μg of hamster α-mCCR5 (clone HM-CCR5, BioLegend), 50 μg of rat anti-mCXCL10 (clone 134013, R&D systems) and 20 μg of rat-α-mCXCR4 (clone 2B11/CXCR4, BD Biosciences) or with respective isotype antibodies (hamster IgG (clone HTK888, BioLegend, used as control for mCXCR3 and mCCR5 blockage); rat IgG2a (clone 54447, R&D systems, used as control for mCXCL10 blockade) and rat IgG2b (clone A95-1, BD Biosciences, used as control for mCXCR4 blockade). […] Tumor height and width were measured with a caliper and tumor volume was calculated (Elliptical volume=width^2×height×0.523). […]

B16F10 melanoma = assay: Subcutaneous B16F10 melanoma tumor growth in vivo; parameters: species or system mouse
Procedure: Mice used were 7-12 weeks old. […] B16F10 and […] (Ovalbumin-expressing B16F10 cells, gift from C. Reis e Sousa) tumor cells were cultured in DMEM (Gibco) supplemented with 10% FCS (PAA), 0.1 mM non-essential amino acids, 1 mM sodium pyruvate, 10 mM Hepes, 70 μM beta-mercaptoethanol and 23 μg/ml gentamycin (all from Gibco). CT26 colon carcinoma cells were cultured in RPMI (Gibco) supplemented as described for DMEM. Cells for injections were passaged 1-2 times after thawing, before use. WT and genetically modified mice were subcutaneously injected with 2×10^5 B16 or 5×10^5 CT26 cells in the shaved right flank. […] For blocking of chemokine and chemokine receptors, WT mice were intraperitoneally injected with 100 μg of hamster a-mCXCR3 (clone CXCR3-173, BioLegend), 100 μg of hamster α-mCCR5 (clone HM-CCR5, BioLegend), 50 μg of rat anti-mCXCL10 (clone 134013, R&D systems) and 20 μg of rat-α-mCXCR4 (clone 2B11/CXCR4, BD Biosciences) or with respective isotype antibodies (hamster IgG (clone HTK888, BioLegend, used as control for mCXCR3 and mCCR5 blockage); rat IgG2a (clone 54447, R&D systems, used as control for mCXCL10 blockade) and rat IgG2b (clone A95-1, BD Biosciences, used as control for mCXCR4 blockade). […] For CXCL10 neutralization, antibodies were injected on day 2, 5, 8 and 11 after tumor cell injection. For immunotherapy protocols, mice were intraperitoneally injected with 100 μg of mouse α-CTLA-4 (clone 9D9, Bioxcell), 200 μg of PD1 (clone RMP1-14, Bioxcell), a combination of 100 μg of α-CTLA-4+200 μg of a-PD1 or control isotypes (100 μg […] and 200 μg rat IgG2a (clone 2A3), both from Bioxcell) on day 3, 6 and 9 after tumor cell implantation. For adoptive cell transfer experiments, Pmel-1 Thy-1.1^+Thy-1.1^+, Cxcr3^-/- Thy-1.1^+Thy-1.2^+ Pmel-1 or OT1 splenocytes were activated ex-vivo, by incubation with 1 nM of human gp100 (for Pmel-1 cells) or […] (for OT1 cells) peptides for 1h at room temperature with agitation. Splenocytes were then washed and resuspended in R10 supplemented with 30U/mL of recombinant human IL-2. CD8^+ T cells were expanded for 6-7 days before used. […] For analysis of tumor growth, activated OT1 cells were injected intravenously (1×10^5 cells per mouse) into gender matched tumor-bearing mice, 3 days after tumor cell injection. Tumor height and width were measured with a caliper and tumor volume was calculated (Elliptical volume=width^2×height×0.523). […] Lungs with more than 100 metastatic nodules were defined as 100.

B16F10 cells = assay: Model of metastatic melanoma (intravenous B16F10, lung metastatic foci); type: in vivo, mouse; details: 15 days after intravenous injection of B16F10 cells
Procedure: as §1

N[C@@H](CC(=O)N1CCn2c(nnc2C(F)(F)F)C1)Cc1cc(F)c(F)cc1F [sitagliptin]
reduction in tumor size ([1]; B16-OVA tumors, day 15): ~50%
B16-OVA tumor growth ([1]; monotherapies vs control): significant delay
CT26 tumor growth (CT26 colon carcinoma; BALB/c mice, sitagliptin vs control chow): marked delay of CT26 tumor growth; also recorded: delayed CT26 growth
CT26 tumor growth with CXCR3 blocking antibodies (CT26 colon carcinoma; anti-CXCR3 antibody, sitagliptin vs control): loss of protection
B16F10 tumor growth in Cxcl10-/- mice (B16F10 melanoma; Cxcl10-/- mice, sitagliptin vs control): the delayed tumor growth achieved by DPP4 inhibition was absent
B16F10 tumor growth in Cxcr3-/- mice (B16F10 melanoma; Cxcr3-/- mice, sitagliptin vs control): abrogated the delayed tumor growth
B16F10 tumor growth in Dpp4-/- mice (B16F10 melanoma; Dpp4-/- mice, sitagliptin vs control chow): did not influence the kinetics of melanoma growth
B16F10 tumor growth in Rag2-/- mice (B16F10 melanoma; Rag2-/- mice, sitagliptin vs control): the beneficial effects of DPP4 inhibition were lost
B16F10 tumor growth (B16F10 melanoma; WT mice, sitagliptin vs control chow): reduced tumor growth
B16F10 tumor growth with CXCR4 blocking in vivo (B16F10 melanoma; anti-mCXCR4 antibody, sitagliptin vs control): did not impact sitagliptin-mediated inhibition of tumor growth
B16F10 tumor growth in wild-type animals treated with CXCL10 blocking antibodies (B16F10 melanoma; loss of sitagliptin effect as in Cxcl10-/- mice): confirmed
growth of established B16F10 tumors (B16F10 melanoma; sitagliptin chow started 3, 5 or 7 days after tumor implantation): delay in tumor growth if sitagliptin was administrated within 5 days after tumor cell implantation
number of lung metastases (B16F10 cells): significantly reduced the number of lung metastases
